Data reported in ChEMBL document CHEMBL4052759, “Discovery of DS79182026: A potent orally active hepcidin production inhibitor” (Bioorg Med Chem Lett, 2017).
Values belong to the compound of their own block, whether it stands above or below them.

Legend:
[1] = target: Tyrosine-protein kinase BTK (Homo sapiens) (UniProt Q06187); assay: Inhibition of BTK (unknown origin) at 0.078 uM relative to control
[2] = target: Tyrosine-protein kinase ABL1 (Homo sapiens) (UniProt P00519); assay: Inhibition of ABL (unknown origin) at 0.078 uM relative to control
Tyrosine-protein kinase ABL1 (Homo sapiens), sequence (P00519 whole entry): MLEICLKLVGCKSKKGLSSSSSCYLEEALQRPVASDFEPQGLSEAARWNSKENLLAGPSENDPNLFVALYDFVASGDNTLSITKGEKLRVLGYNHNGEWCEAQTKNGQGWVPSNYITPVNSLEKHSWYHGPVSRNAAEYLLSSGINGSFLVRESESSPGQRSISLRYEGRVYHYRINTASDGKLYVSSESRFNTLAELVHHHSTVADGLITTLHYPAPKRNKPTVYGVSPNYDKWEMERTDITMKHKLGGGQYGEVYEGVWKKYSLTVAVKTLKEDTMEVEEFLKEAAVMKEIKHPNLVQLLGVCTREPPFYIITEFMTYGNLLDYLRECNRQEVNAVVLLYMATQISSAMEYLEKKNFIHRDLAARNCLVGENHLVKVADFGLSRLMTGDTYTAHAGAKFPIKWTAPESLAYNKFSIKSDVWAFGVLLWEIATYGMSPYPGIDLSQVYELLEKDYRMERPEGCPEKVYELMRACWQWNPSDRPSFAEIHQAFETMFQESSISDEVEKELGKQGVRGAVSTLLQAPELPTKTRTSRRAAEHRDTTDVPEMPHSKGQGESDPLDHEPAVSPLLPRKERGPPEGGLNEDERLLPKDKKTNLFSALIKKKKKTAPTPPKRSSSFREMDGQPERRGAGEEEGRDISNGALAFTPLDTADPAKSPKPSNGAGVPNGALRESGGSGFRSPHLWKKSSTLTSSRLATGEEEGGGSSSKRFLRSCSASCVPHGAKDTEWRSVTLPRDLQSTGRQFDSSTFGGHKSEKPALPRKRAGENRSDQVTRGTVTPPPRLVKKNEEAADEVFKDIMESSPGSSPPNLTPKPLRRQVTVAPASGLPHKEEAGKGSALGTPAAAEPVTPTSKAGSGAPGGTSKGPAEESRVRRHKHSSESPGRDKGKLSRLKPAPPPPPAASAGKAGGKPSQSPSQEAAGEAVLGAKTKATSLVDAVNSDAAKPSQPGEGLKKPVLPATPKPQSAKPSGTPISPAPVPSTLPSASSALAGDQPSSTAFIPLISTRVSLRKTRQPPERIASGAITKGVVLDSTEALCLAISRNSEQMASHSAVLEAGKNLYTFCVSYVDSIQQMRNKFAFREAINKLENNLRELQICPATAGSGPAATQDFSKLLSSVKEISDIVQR

[3] = target: Tyrosine-protein kinase Lyn (Homo sapiens) (UniProt P07948); assay: Inhibition of LYN (unknown origin) at 0.078 uM relative to control
[4] = target: Tyrosine-protein kinase BTK (Homo sapiens) (UniProt Q06187); assay: Inhibition of BTK (unknown origin) at 0.45 uM relative to control
[5] = target: Proto-oncogene tyrosine-protein kinase receptor Ret (Homo sapiens) (UniProt P07949); assay: Inhibition of RET (unknown origin) at 0.45 uM relative to control
[6] = target: Serine/threonine-protein kinase Sgk3 (Homo sapiens) (UniProt Q96BR1); assay: Inhibition of SGK3 (unknown origin) at 0.45 uM relative to control
Serine/threonine-protein kinase Sgk3 (Homo sapiens), sequence (Q96BR1 whole entry): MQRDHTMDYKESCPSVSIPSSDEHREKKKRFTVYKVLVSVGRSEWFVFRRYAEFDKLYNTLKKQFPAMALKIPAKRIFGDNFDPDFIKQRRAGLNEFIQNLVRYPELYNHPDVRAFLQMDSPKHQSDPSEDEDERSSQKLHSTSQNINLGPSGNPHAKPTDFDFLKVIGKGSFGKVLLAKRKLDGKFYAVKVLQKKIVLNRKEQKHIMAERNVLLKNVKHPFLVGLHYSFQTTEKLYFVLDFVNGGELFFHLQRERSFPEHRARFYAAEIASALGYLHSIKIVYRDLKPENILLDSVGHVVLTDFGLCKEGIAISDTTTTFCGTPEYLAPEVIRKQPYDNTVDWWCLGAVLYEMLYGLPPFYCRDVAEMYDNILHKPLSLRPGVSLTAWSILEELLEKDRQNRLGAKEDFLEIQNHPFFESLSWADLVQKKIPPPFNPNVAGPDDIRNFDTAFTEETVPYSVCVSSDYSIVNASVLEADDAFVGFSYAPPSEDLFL

[7] = target: Protein kinase C delta type (Homo sapiens) (UniProt Q05655); assay: Inhibition of PKC-delta (unknown origin) at 0.45 uM relative to control
Protein kinase C delta type (Homo sapiens), sequence (Q05655 whole entry, looked up): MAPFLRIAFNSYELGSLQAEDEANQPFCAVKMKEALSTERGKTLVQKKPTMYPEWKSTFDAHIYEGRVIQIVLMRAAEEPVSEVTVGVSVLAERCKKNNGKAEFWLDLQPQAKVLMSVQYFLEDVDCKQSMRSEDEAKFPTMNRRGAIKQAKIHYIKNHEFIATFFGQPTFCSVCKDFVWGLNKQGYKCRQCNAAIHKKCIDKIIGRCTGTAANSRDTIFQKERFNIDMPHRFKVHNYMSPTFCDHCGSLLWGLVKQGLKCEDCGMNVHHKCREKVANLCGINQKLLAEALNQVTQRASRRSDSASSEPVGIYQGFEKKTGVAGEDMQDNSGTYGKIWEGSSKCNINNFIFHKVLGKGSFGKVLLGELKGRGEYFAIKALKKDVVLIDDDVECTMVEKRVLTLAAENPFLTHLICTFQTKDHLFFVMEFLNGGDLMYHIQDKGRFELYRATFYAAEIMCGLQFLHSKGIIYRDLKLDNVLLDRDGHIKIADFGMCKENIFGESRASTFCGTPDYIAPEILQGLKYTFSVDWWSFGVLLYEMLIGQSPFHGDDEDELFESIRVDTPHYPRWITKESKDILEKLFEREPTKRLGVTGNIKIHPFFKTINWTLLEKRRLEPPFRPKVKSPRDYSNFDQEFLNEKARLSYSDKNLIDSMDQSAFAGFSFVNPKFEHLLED

[8] = target: Calcium/calmodulin-dependent protein kinase type 1D (Homo sapiens) (UniProt Q8IU85); assay: Inhibition of CamK1d (unknown origin) at 0.45 uM relative to control
Calcium/calmodulin-dependent protein kinase type 1D (Homo sapiens), sequence (Q8IU85 whole entry, looked up): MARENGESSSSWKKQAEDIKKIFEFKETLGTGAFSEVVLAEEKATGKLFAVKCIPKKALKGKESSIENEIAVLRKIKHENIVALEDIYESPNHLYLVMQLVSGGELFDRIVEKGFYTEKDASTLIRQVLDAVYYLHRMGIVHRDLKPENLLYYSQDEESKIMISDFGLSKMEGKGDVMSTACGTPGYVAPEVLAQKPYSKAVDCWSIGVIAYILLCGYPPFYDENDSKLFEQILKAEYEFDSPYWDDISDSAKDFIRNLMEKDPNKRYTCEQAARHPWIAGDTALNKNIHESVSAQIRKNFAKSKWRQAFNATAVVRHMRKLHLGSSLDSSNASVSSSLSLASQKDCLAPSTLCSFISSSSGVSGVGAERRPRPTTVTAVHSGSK

[9] = target: SRSF protein kinase 3 (Homo sapiens) (UniProt Q9UPE1); assay: Inhibition of MSSK1 (unknown origin) at 0.45 uM relative to control
SRSF protein kinase 3 (Homo sapiens), sequence (Q9UPE1 whole entry): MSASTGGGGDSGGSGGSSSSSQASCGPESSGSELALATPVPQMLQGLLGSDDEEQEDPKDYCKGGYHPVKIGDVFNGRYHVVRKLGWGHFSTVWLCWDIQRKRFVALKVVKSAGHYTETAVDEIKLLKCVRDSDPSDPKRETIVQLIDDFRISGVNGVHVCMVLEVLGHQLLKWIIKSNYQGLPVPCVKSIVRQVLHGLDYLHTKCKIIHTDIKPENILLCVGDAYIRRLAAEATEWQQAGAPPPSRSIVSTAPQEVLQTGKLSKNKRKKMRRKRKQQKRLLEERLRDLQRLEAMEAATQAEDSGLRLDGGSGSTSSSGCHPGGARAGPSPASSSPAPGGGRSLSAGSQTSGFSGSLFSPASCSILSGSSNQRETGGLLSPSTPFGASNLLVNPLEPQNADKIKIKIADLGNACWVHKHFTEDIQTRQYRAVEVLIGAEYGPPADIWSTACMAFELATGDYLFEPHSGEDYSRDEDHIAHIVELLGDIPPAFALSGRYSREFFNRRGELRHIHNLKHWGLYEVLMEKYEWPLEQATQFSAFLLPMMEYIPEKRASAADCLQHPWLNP

[10] = target: Inhibitor of nuclear factor kappa-B kinase subunit beta (Homo sapiens) (UniProt O14920); assay: Inhibition of IKK-beta (unknown origin) at 0.45 uM relative to control
Inhibitor of nuclear factor kappa-B kinase subunit beta (Homo sapiens), sequence (O14920 whole entry): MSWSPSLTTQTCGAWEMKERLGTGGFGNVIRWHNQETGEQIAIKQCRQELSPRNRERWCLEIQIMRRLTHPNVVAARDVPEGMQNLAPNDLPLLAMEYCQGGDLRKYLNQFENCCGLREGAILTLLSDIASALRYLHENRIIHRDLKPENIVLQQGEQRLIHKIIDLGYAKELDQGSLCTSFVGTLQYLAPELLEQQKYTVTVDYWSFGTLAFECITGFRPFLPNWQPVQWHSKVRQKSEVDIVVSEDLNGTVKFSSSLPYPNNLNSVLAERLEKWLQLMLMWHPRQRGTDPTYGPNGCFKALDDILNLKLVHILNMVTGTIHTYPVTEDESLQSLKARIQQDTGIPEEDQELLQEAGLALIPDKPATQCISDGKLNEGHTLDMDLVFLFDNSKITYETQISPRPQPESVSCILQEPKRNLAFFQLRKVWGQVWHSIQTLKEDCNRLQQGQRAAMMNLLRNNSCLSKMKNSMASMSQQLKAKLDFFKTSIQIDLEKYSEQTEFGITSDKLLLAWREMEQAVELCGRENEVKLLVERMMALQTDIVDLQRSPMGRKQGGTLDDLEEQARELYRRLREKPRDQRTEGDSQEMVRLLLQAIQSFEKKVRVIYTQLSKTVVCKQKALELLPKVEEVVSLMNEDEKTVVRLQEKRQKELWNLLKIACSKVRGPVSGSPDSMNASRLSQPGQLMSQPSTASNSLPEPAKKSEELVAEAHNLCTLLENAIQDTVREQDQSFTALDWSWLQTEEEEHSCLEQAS

[11] = target: CDK4/Cyclin D3 (Homo sapiens) (UniProt P11802+P30281); assay: Inhibition of CDK4/CyclinD3 (unknown origin) at 0.45 uM relative to control; assay type: protein-complex assay
[12] = target: MAP kinase-activated protein kinase 3 (Homo sapiens) (UniProt Q16644); assay: Inhibition of MAPKAPK3 (unknown origin) at 0.45 uM relative to control
MAP kinase-activated protein kinase 3 (Homo sapiens), sequence (Q16644 whole entry, looked up): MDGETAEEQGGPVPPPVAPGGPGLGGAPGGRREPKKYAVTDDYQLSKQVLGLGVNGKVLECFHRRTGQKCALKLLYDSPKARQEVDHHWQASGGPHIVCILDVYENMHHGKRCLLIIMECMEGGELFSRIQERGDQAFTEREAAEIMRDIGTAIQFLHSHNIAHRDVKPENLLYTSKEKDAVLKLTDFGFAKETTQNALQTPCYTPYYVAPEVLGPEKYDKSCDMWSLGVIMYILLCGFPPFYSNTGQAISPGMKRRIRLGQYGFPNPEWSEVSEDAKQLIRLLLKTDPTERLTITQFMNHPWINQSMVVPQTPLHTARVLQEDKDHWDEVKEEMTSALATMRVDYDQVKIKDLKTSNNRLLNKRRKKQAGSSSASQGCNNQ

[13] = target: Hepatocyte growth factor receptor (Homo sapiens) (UniProt P08581); assay: Inhibition of MET (unknown origin) at 0.45 uM relative to control
[14] = target: T1, Serine/threonine-protein kinase 3 (Homo sapiens) (UniProt Q13188); assay: Inhibition of MST2 (unknown origin) at 0.49 uM relative to control
T1 sequence (whole entry): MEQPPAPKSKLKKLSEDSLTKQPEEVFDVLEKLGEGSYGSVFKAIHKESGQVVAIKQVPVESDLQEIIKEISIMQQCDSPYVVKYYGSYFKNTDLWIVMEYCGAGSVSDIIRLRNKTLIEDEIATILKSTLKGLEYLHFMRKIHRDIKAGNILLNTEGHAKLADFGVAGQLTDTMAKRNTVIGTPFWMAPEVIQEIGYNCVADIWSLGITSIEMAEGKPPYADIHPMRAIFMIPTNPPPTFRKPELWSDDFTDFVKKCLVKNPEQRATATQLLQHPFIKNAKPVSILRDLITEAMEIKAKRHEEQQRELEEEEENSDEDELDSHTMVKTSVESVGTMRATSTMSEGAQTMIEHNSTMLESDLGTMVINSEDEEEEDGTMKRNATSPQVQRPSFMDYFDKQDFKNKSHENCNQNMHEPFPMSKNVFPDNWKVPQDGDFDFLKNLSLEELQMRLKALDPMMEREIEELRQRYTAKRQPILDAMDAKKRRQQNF

[15] = target: Mitogen-activated protein kinase 3 (Homo sapiens) (UniProt P27361); assay: Inhibition of Erk1 (unknown origin) at 0.49 uM relative to control
[16] = target: Cyclin-dependent kinase 1/cyclin B1 (Homo sapiens) (UniProt P06493+P14635); assay: Inhibition of CDK1/Cycline B1 (unknown origin) at 0.49 uM relative to control; assay type: protein-complex assay
[17] = test system: Receptor-type tyrosine-protein kinase FLT3 (Homo sapiens), P36888 [D835Y]; assay: Inhibition of Flt3 D835Y mutant (unknown origin) at 0.49 uM relative to control
[18] = target: Leukocyte tyrosine kinase receptor (Homo sapiens) (UniProt P29376); assay: Inhibition of LTK (unknown origin) at 0.49 uM relative to control
[19] = target: Tyrosine-protein kinase receptor TYRO3 (Homo sapiens) (UniProt Q06418); assay: Inhibition of TYRO3 (unknown origin) at 0.49 uM relative to control
[20] = target: Tyrosine-protein kinase Mer (Homo sapiens) (UniProt Q12866); assay: Inhibition of Mer (unknown origin) at 0.49 uM relative to control
[21] = target: T2, Serine/threonine-protein kinase D2 (Homo sapiens) (UniProt Q9BZL6); assay: Inhibition of PKD2 (unknown origin) at 0.49 uM relative to control
T2 sequence (whole entry): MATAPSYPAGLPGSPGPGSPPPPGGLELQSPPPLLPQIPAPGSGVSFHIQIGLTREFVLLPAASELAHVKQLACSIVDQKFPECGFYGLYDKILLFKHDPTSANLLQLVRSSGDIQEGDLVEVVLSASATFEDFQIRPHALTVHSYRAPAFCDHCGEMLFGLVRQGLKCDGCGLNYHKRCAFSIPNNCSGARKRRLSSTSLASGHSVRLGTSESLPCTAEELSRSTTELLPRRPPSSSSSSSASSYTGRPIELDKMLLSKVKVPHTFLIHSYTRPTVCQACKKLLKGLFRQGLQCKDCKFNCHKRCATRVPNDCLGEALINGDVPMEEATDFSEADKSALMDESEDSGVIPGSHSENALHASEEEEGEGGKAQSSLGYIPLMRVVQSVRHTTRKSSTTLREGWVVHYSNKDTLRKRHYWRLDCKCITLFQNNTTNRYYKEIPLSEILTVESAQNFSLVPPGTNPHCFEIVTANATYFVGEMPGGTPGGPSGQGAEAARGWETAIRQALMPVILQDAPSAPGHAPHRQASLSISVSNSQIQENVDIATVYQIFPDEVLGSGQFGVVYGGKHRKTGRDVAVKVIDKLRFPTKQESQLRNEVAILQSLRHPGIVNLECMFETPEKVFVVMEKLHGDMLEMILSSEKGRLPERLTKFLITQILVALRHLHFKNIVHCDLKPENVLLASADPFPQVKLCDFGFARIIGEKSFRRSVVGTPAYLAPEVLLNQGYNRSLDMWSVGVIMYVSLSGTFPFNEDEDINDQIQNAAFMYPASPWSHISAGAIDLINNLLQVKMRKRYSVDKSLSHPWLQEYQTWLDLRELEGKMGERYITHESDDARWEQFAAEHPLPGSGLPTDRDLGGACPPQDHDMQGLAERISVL

[22] = target: Dual specificity tyrosine-phosphorylation-regulated kinase 1A (Homo sapiens) (UniProt Q13627); assay: Inhibition of DYRK1a (unknown origin) at 0.49 uM relative to control
[23] = target: Testis-specific serine/threonine-protein kinase 2 (Homo sapiens) (UniProt Q96PF2); assay: Inhibition of TSSK2 (unknown origin) at 0.49 uM relative to control

Tyrosine-protein kinase BTK (Homo sapiens), sequence (Q06187 whole entry): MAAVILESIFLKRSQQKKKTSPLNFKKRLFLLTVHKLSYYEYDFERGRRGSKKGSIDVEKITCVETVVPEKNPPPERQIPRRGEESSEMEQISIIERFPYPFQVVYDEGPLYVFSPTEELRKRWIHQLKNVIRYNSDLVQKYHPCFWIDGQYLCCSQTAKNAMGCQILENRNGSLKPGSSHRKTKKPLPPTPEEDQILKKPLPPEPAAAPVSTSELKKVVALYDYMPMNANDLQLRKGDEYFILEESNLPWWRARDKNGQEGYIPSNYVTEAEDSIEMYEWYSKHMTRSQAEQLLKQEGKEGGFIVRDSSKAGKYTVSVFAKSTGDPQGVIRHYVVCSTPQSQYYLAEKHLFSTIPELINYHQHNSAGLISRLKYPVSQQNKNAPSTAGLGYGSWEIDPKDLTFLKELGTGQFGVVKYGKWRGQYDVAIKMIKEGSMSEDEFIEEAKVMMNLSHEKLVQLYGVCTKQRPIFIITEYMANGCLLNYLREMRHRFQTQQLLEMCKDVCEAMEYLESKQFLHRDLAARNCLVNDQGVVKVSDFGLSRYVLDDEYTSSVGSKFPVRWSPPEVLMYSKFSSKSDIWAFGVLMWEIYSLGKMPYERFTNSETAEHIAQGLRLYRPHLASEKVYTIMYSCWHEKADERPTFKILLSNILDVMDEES

inhibition [1]: 7.7%
inhibition [2]: 34%
inhibition [3]: -0.3%
SMILES: COC(=O)Nc1noc2cc(-c3c(-c4ccccn4)n[nH]c3C)ccc12

inhibition [4]: 5%
inhibition [5]: 59%
inhibition [6]: 3.3%
inhibition [7]: 5.3%
inhibition [8]: 0.7%
inhibition [9]: 2%
inhibition [10]: 2.3%
inhibition [11]: -8.3%
inhibition [12]: 4%
inhibition [13]: 5.7%
SMILES: Cc1n[nH]c(C)c1-c1ccc2c(NC(=O)c3ccc(N4CCN(C)CC4)cc3)n[nH]c2c1

inhibition [14]: 1%
inhibition [15]: 3.7%
inhibition [16]: 20%
inhibition [17]: 15.3%
inhibition [18]: -3.3%
inhibition [19]: 8.7%
inhibition [20]: 11.3%
inhibition [21]: 7.7%
inhibition [22]: 4.7%
inhibition [23]: 2%
SMILES: Cc1[nH]nc(C2CC2)c1-c1ccc2c(NC(=O)C3CC3)noc2c1
